Results published in US10954287B2, “Ras binding peptides and methods of use” (Ra Pharmaceuticals, Inc., priority 2016, dated 2021).
Where a SMILES comes first, the peptide text is derived from it. [ ]: non-standard residue; d: D form. Trp(7-aza) = N[C@@H](Cc1c[nH]c2ncccc12)C(=O)O; NMePhe(4-F) = CN[C@@H](Cc1ccc(F)cc1)C(=O)O; Phg = N[C@H](C(=O)O)c1ccccc1; Tle = CC(C)(C)[C@H](N)C(=O)O; NMeA = CN[C@@H](C)C(=O)O; Pra = C#CC[C@H](N)C(=O)O; PEG1 = NCCOCCC(=O)O; Sar = CNCC(=O)O

tested on: GMPPNP-loaded H-Ras or GTP-loaded K-Ras; assay: Fluorescence polarization competition assay with TAMRA-labeled probe R4007; type: binding, human; conditions: 120 nM Ras, 30 nM probe R4007, 60 minutes at room temperature; read-out: Probe displacement (nM IC50)
Procedure: R4000 was evaluated for competition with a TAMRA labeled probe (R4007) based on peptide R4000. The assay was performed in 384-well black, non-binding plates (Greiner Bio-One, Monroe, N.C.). GMPPNP-loaded H-Ras or GTP-loaded K-Ras, diluted in FP assay buffer (20 mM Tris-HCl, pH 7.5, 50 mM NaCl, 5 mM MgCl2, 1 mM EDTA, 0.002% Triton-X-100) for a final concentration of 120 nM was incubated with 30 nM R4007 for 20 minutes at room temperature. R4000 was serially diluted, added to the assay and incubated for 60 minutes at room temperature. Fluorescence polarization was detected with a SpectraMax Paradigm plate reader (Molecular Devices, Sunnyvale, Calif.) using the Rhodamine FP detection cartridge (535 nm/595 nm). Data was analyzed using GraphPad Prism and Ki determined using One Site Ki Curve fitting model.
Peptides were evaluated for competition with R4007, a probe consisting of TAMRA-labeled R4000, using a fluorescence polarization (FP) competition assay. The assay was performed in 384-well black, non-binding plates (Greiner Bio-One, Monroe, N.C.). GMPPNP-loaded H-Ras or GTP- loaded K-Ras, diluted in FP assay buffer (20 mM Tris-HCl, pH 7.5, 50 mM NaCl, 5 mM MgCl2, 1 mM EDTA, 0.002% Triton-X-100) for a final concentration of 120 nM was incubated with 30 nM probe for 20 minutes at room temperature. Peptides were serially diluted, added to the assay and incubated for 60 minutes at room temperature. Fluorescence was detected with a SpectraMax Paradigm plate reader (Molecular Devices, Sunnyvale, Calif.) using the Rhodamine FP detection cartridge (535 nm/595 nm). Data was analyzed and Ki determined using a One Site Ki Curve fitting model. Percent inhibition for each data point was calculated relative to the maximal binding in test compound-free control wells (showing no probe displacement) and Ras-free control wells (showing no probe binding) and the half-maximal inhibitory concentration (IC50), based on probe displacement, was determined.

| IC50 | SMILES |
| --- | --- |
| 9.42 nM | C#CC[C@H](NC(=O)CCOCCOCCOCCOCCNC(=O)[C@@H]1CSCc2cccc(c2)CSC[C@H](NC(=O)[C@H](CCC)NC(C)=O)C(=O)N[C@@H](Cc2ccc(O)cc2)C(=O)N[C@@H](C(C)(C)C)C(=O)N[C@@H](CCCCN)C(=O)N[C@@H](Cc2c[nH]cn2)C(=O)N(C)[C@@H](C)C(=O)N[C@@H](c2ccccc2)C(=O)N[C@@H](Cc2c[nH]c3ncccc23)C(=O)N[C@@H](Cc2ccc(O)cc2)C(=O)N(C)[C@@H](Cc2ccc(F)cc2)C(=O)N(C)CC(=O)N1)C(N)=O (relative stereo) [Compound R4107, ACE-NVA-CYS*-TYR-TBG-LYS-HIS-NMA-PHG-7AW-TYR-MFF-SAR-CYS*-PEG4PA-PRG-NH2] |
| 522 nM | C#CC[C@@H]1NC(=O)CN(C)C(=O)[C@H](Cc2ccc(F)cc2)N(C)C(=O)[C@H](Cc2ccc(O)cc2)NC(=O)[C@H](Cc2c[nH]c3ncccc23)NC(=O)[C@H](c2ccccc2)NC(=O)[C@H](C)N(C)C(=O)[C@H](Cc2c[nH]cn2)NC(=O)[C@H](CCCCN)NC(=O)[C@H](C(C)(C)C)NC(=O)[C@H](Cc2ccc(O)cc2)NC(=O)CCOCCNC1=O [Compound R4139, AEP*-TYR-TBG-LYS-HIS-NMA-PHG-7AW-TYR-MFF-SAR-PRG*] (cyclo([PEG1]Y[Tle]KH[NMeA][Phg][Trp(7-aza)]Y[NMePhe(4-F)][Sar][Pra])) |
| 32.7 nM | CCC[C@H](N)C(=O)N[C@H]1CSCc2cccc(c2)CSC[C@@H](C(=O)N[C@H](CO)C(=O)N[C@@H](CCCCN)C(=O)NCC(=O)N[C@@H](CSSC(C)(C)C)C(=O)N[C@H](C(=O)N[C@H](C(=O)N[C@@H](CCSC)C(=O)O)[C@@H](C)CC)C(C)C)NC(=O)CN(C)C(=O)[C@H](Cc2ccc(F)cc2)N(C)C(=O)[C@H](Cc2ccc(O)cc2)NC(=O)[C@H](Cc2c[nH]c3ncccc23)NC(=O)[C@H](c2ccccc2)NC(=O)[C@H](C)N(C)C(=O)[C@H](Cc2c[nH]cn2)NC(=O)[C@H](CCCCN)NC(=O)[C@H](C(C)(C)C)NC(=O)[C@H](Cc2ccc(O)cc2)NC1=O (relative stereo) [Compound R4113, NVA-CYS*-TYR-TBG-LYS-HIS-NMA-PHG-7AW-TYR-MFF-SAR-CYS*-DSER-LYS-GLY-TDSPA-VAL-ILE-MET] |
| 6260 nM | CCC[C@H](NC(C)=O)C(=O)N[C@H]1CSCc2cccc(c2)CSC[C@@H](C(N)=O)NC(=O)CN(C)C(=O)[C@H](Cc2ccc(F)cc2)N(C)C(=O)[C@H](Cc2ccc(O)cc2)NC(=O)[C@H](Cc2c[nH]c3ncccc23)NC(=O)[C@H](C2CCCCC2)NC(=O)[C@H](C)N(C)C(=O)[C@H](Cc2c[nH]cn2)NC(=O)[C@H](CCCCN)NC(=O)[C@H](C(C)(C)C)NC(=O)[C@H](Cc2ccc(O)cc2)NC1=O (relative stereo) [Compound R4149, ACE-NVA-CYS*-TYR-TBG-LYS-HIS-NMA-CHG-7AW-TYR-MFF-SAR-CYS*-NH2] |
| 3.31 nM | CCC[C@H](NC(C)=O)C(=O)N[C@H]1CSCc2cccc(c2)CSC[C@@H](C(=O)N[C@H](CO)C(=O)N[C@@H](CCCCN)C(=O)NCC(=O)N[C@@H](CS)C(=O)N[C@H](C(=O)N[C@H](C(=O)N[C@@H](CCSC)C(=O)O)[C@@H](C)CC)C(C)C)NC(=O)CN(C)C(=O)[C@H](Cc2ccc(F)cc2)N(C)C(=O)[C@H](Cc2ccc(O)cc2)NC(=O)[C@H](Cc2c[nH]c3ncccc23)NC(=O)[C@H](c2ccccc2)NC(=O)[C@H](C)N(C)C(=O)[C@H](Cc2c[nH]cn2)NC(=O)[C@H](CCCCN)NC(=O)[C@H](C(C)(C)C)NC(=O)[C@H](Cc2ccc(O)cc2)NC1=O (relative stereo) [Compound R4105, ACE-NVA-CYS*-TYR-TBG-LYS-HIS-NMA-PHG-7AW-TYR-MFF-SAR-CYS*-DSER-LYS-GLY-CYS-VAL-ILE-MET] |
| 77.1 nM | C=CC(=O)NCCC[C@@H]1NC(=O)[C@H](C)NC(=O)[C@H](C(C)(C)C)NC(=O)[C@H](Cc2ccc(O)cc2)NC(=O)[C@@H](NC(=O)[C@H](CCC)NC(C)=O)CSCc2cccc(c2)CSC[C@@H](C(N)=O)NC(=O)CN(C)C(=O)[C@H](Cc2ccc(F)cc2)N(C)C(=O)[C@H](Cc2ccc(O)cc2)NC(=O)[C@H](Cc2c[nH]c3ncccc23)NC(=O)[C@H](c2ccccc2)NC(=O)[C@H](C)N(C)C1=O (relative stereo) [Compound R4122, ACE-NVA-CYS*-TYR-TBG-ALA-ORAC-NMA-PHG-7AW-TYR-MFF-SAR-CYS*-NH2] |
| 8.38 nM | CCC[C@H](NC(=O)CCCCCCNC(=O)[C@H](CC(C)C)NC(=O)[C@@H](O)[C@H](N)Cc1ccccc1)C(=O)N[C@H]1CSCc2cccc(c2)CSC[C@@H](C(N)=O)NC(=O)CN(C)C(=O)[C@H](Cc2ccc(F)cc2)N(C)C(=O)[C@H](Cc2ccc(O)cc2)NC(=O)[C@H](Cc2c[nH]c3ncccc23)NC(=O)[C@H](c2ccccc2)NC(=O)[C@H](C)N(C)C(=O)[C@H](Cc2c[nH]cn2)NC(=O)[C@H](CCCCN)NC(=O)[C@H](C(C)(C)C)NC(=O)[C@H](Cc2ccc(O)cc2)NC1=O (relative stereo) [Compound R4106, UBX-AHPA-NVA-CYS*-TYR-TBG-LYS-HIS-NMA-PHG-7AW-TYR-MFF-SAR-CYS*-NH2] |
| 20.8 nM | CCC[C@H](NC(C)=O)C(=O)N[C@H]1CSCc2cccc(c2)CSC[C@@H](C(=O)N[C@H](CO)C(=O)N[C@H](C)C(=O)N[C@@H](CCCCN)C(=O)N[C@@H](CSSC(C)(C)C)C(=O)N[C@H](C(=O)N[C@H](C(=O)N[C@@H](CCSC)C(=O)O)[C@@H](C)CC)C(C)C)NC(=O)CN(C)C(=O)[C@H](Cc2ccc(F)cc2)N(C)C(=O)[C@H](Cc2ccc(O)cc2)NC(=O)[C@H](Cc2c[nH]c3ncccc23)NC(=O)[C@H](c2ccccc2)NC(=O)[C@H](C)N(C)C(=O)[C@H](Cc2c[nH]cn2)NC(=O)[C@H](CCCCN)NC(=O)[C@H](C(C)(C)C)NC(=O)[C@H](Cc2ccc(O)cc2)NC1=O (relative stereo) [Compound R4111, ACE-NVA-CYS*-TYR-TBG-LYS-HIS-NMA-PHG-7AW-TYR-MFF-SAR-CYS*-DSER-DALA-LYS-TDSPA-VAL-ILE-MET] |
| 1.82 nM | CCC[C@H](NC(C)=O)C(=O)N[C@H]1CSCc2cccc(c2)CSC[C@@H](C(=O)N[C@H](CO)C(=O)N[C@H](C)C(=O)NCC(=O)N[C@@H](CS)C(=O)N[C@H](C(=O)N[C@H](C(=O)N[C@@H](CCSC)C(=O)O)[C@@H](C)CC)C(C)C)NC(=O)CN(C)C(=O)[C@H](Cc2ccc(F)cc2)N(C)C(=O)[C@H](Cc2ccc(O)cc2)NC(=O)[C@H](Cc2c[nH]c3ncccc23)NC(=O)[C@H](c2ccccc2)NC(=O)[C@H](C)N(C)C(=O)[C@H](Cc2c[nH]cn2)NC(=O)[C@H](CCCCN)NC(=O)[C@H](C(C)(C)C)NC(=O)[C@H](Cc2ccc(O)cc2)NC1=O (relative stereo) [Compound R4102, ACE-NVA-CYS*-TYR-TBG-LYS-HIS-NMA-PHG-7AW-TYR-MFF-SAR-CYS*-DSER-DALA-GLY-CYS-VAL-ILE-MET] |
| 342 nM | C=CC(=O)NCCCC[C@H]1C(=O)N[C@@H](c2ccccc2)C(=O)N[C@@H](Cc2c[nH]c3ncccc23)C(=O)N[C@@H](Cc2ccc(O)cc2)C(=O)N(C)[C@@H](Cc2ccc(F)cc2)C(=O)N(C)CC(=O)N[C@H](C(N)=O)CSCc2cccc(c2)CSC[C@H](NC(=O)[C@H](CCC)NC(C)=O)C(=O)N[C@@H](Cc2ccc(O)cc2)C(=O)N[C@@H](C(C)(C)C)C(=O)N[C@@H](C)C(=O)N[C@@H](Cc2c[nH]cn2)C(=O)N1C (relative stereo) [Compound R4133, ACE-NVA-CYS*-TYR-TBG-ALA-HIS-MKAC-PHG-7AW-TYR-MFF-SAR-CYS*-NH2] |
| 110 nM | CCC[C@H](NC(C)=O)C(=O)N[C@H]1CSCc2cccc(c2)CSC[C@@H](C(N)=O)NC(=O)CN(C)C(=O)[C@H](Cc2ccc(F)cc2)N(C)C(=O)[C@H](Cc2ccc(O)cc2)NC(=O)[C@H](Cc2c[nH]c3ncccc23)NC(=O)[C@H](c2ccccc2)NC(=O)[C@H](CCCCN)N(C)C(=O)[C@H](Cc2c[nH]cn2)NC(=O)[C@H](C)NC(=O)[C@H](C(C)(C)C)NC(=O)[C@H](Cc2ccc(O)cc2)NC1=O (relative stereo) [Compound R4125, ACE-NVA-CYS*-TYR-TBG-ALA-HIS-NMK-PHG-7AW-TYR-MFF-SAR-CYS*-NH2] |
| 14.2 nM | CCC[C@H](NC(C)=O)C(=O)N[C@H]1CSCc2cccc(c2)CSC[C@@H](C(=O)N[C@H](CO)C(=O)N[C@@H](CCCCN)C(=O)NCC(=O)N[C@@H](CSSC(C)(C)C)C(=O)N[C@H](C(=O)N[C@H](C(=O)N[C@@H](CCSC)C(=O)O)[C@@H](C)CC)C(C)C)NC(=O)CN(C)C(=O)[C@H](Cc2ccc(F)cc2)N(C)C(=O)[C@H](Cc2ccc(O)cc2)NC(=O)[C@H](Cc2c[nH]c3ncccc23)NC(=O)[C@H](c2ccccc2)NC(=O)[C@H](C)N(C)C(=O)[C@H](Cc2c[nH]cn2)NC(=O)[C@H](CCCCN)NC(=O)[C@H](C(C)(C)C)NC(=O)[C@H](Cc2ccc(O)cc2)NC1=O (relative stereo) [Compound R4109, ACE-NVA-CYS*-TYR-TBG-LYS-HIS-NMA-PHG-7AW-TYR-MFF-SAR-CYS*-DSER-LYS-GLY-TDSPA-VAL-ILE-MET] |
